Test results from patent US20240382626A1, “IRRADIATION AMENABLE LIPOSOMAL DYE AGGREGATES AND METHODS OF SYNTHESIS AND USE THEREOF” (Board of Regents, The University of Texas System, priority 2023, published 2024).
Entries after “also recorded” stand apart in the source; their conditions may differ.

How the values were obtained:
[1] = Photostability during pulsed-laser photoacoustic imaging; format: physicochemical
Procedure: All photoacoustic imaging was performed using the VEVO LAZR-X and F2 Systems (FUJIFILM VisualSonics, Toronto, Canada). The system was calibrated per manufacturer instructions prior to all experiments. Equal concentrations of IcG, IcG-JA, and L-JA were loaded into the plastic tubes before coupling the imaging phantom to the transducer with ultrasound gel. For base characterization, a full spectral scan from 680 nm to 970 nm was performed. Photostability measurements were obtained by imaging at either 800 nm or 890 nm for 30 minutes. At five-minute intervals, which equated to nearly every 1400 pulses (˜280 pulses per minute), the scan was paused to allow for a full spectral scan to be performed. RAW data files from the system were exported and were analyzed using custom software written in MATLAB.

[2] = In vitro photothermal heating with 808 nm and 852 nm lasers; settings: 808 nm laser
From the text: To assess the heating capacity of IcG and L-JA solutions, two different laser setups were utilized. All laser components including diodes, mounts, fiber optic cables, lens, and adapters were acquired from ThorLabs (Thorlabs Inc., Newton, NJ, USA) Two different laser diodes, one 808 nm the other 852 nm, were mounted, aligned, and focused in view of a high-resolution IR camera and tracked using accompanying software (Teledyne FLIR, Wilsonville, OR, USA). The 852 nm laser system included an optical isolator (ThorLabs) in the light path as recommended by the manufacturer, but otherwise the systems were identical. Laser power was calibrated to 1 W/cm^2 for both lasers and across all experiments. All experiments were conducted in 24- or 96-well plates filled with corresponding contrast agent solutions placed at the focus of the laser and IR camera.

HUVECs = experiment: MTS cytotoxicity assay; format: cell-based; settings: 24 hr incubation, p<0.05
Procedure: The cytotoxicity of L-JA, IcG-JA, and IcG was evaluated on HUVECs and HEK-293T cell lines. The HUVECs were cultured in MCDB-131 medium supplemented with 10% (v/v) fetal bovine serum, 1% L-glutamine, 1% penicillin-streptomycin, and 1% endothelial cell growth supplement. The HEK-293T cells were cultured in Dulbecco's modified Eagle medium (DMEM) supplemented with 10% (v/v) fetal bovine serum and 1% penicillin-streptomycin. Both cell lines were incubated at 37° C. with 5% CO2 in a humidified atmosphere. The HUVEC and HEK-293T cells were seeded at the density of 10,000 cells per well and 5,000 cells per well in 96 well plates. After 24 hours, the culture media was replaced with fresh media containing L-JA, IcG-JA, and IcG at the concentration of 0.25 mM, 0.2 mM, 0.1 mM, and 0.05 mM. Cells incubated without particles were used as a control group. After 24 hours, the culture media was replaced with […] of fresh media. 20 μl of a mixture of [3-(4,5-dimethylthiazol-2-yl)-5-(3-carboxymethoxyphenyl)-2-(4-sulfophenyl)-2H-tetrazolium] (MTS) and phenazine ethosulfate (PES) was then added to each well. The cells were further incubated for 4 hours at 37° C. The absorbance signal at 490 nm was measured using a BioTek plate reader.

[3] = system: mouse kidney and surrounding tissue; experiment: In vivo contrast enhancement and circulation by photoacoustic imaging; set-up: species or system mice; settings: systemic administration
From the text: Particle circulation was monitored by imaging the mouse kidney and surrounding tissue. The kidney is a high blood flow organ that has the distinct advantage of being easily and rapidly identifiable using ultrasound imaging. Simple setup and identification decreases the amount of time animals are under anesthesia and limits any potential artificial lowering of SO2 due to prolonged exposure to anesthetic agents. Once prepped, mice placed in the imaging system were imaged with power-doppler to confirm blood flow and baseline values for SO2 and contrast agent signals (FIG. 13). Following a bolus injection of a 5 mg/kg dose of contrast agent via the tail vein, the same region was monitored at varying time points. After processing with FUJIFILM VisualSonics' proprietary spectral unmixing software the images were analyzed using in-house MATLAB software. Power-doppler images guide the placement of ROIs around areas of high blood flow allowing isolation and calculation of SO2 and contrast agent signal over the course of imaging.
To assess their performance in vivo, particles were injected intravenously via the tail vein. Particle circulation was monitored by imaging the mouse kidney and surrounding tissue. […] Following a bolus injection of contrast agent via the tail vein, the same region was monitored at multiple time points. […]

CC1(C)C(/C=C/C=C/C=C/C=C2\N(CCCCS(=O)(=O)O)c3ccc4ccccc4c3C2(C)C)=[N+](CCCCS(=O)(=O)[O-])c2ccc3ccccc3c21 [IcG, Indocyanine Green]
time until PA signal fully quenches ([1]; 800 nm laser pulses): 25 min | photoacoustic signal drop ([1]; 800 nm laser pulses, just under 5 pulses per second, after just over 5 minutes / between 5 and 10 minutes): more than 50% | photodegradation (in words) ([1]; 30 minutes of imaging at 800 nm): completely photodegraded | behaviour on repeated (cyclic) laser heating (in words) [2]: can only be heated once | concentration at which significant cytotoxicity relative to control occurs (HUVECs): 200 µM | clearance / circulation (in words) [3]: cleared from circulation within an hour; also recorded: fully cleared over the course of a few minutes
